Measured values taken from publication PMC5641083, “Blockage of FOXP3 transcription factor dimerization and FOXP3/AML1 interaction inhibits T regulatory cell activity: sequence optimization of a peptide inhibitor” (Oncotarget, 2017).
Where two headings read alike, the source gives them in different places. Where a SMILES comes first, the peptide text is derived from it.

Key:
[1] = test system: murine Treg cells; format: cell-based, BALB/c mice
Description: Results shown in Figures 1–3 correspond to cell-free assays where peptides can interact directly with its corresponding protein partner. However, FOXP3 binding peptides need to enter into the cell in order to inhibit FOXP3 functions. Once we identified some mutants with higher capacity to bind FOXP3, we studied their capacity to inhibit the suppressor activity of natural Tregs in vitro. Thus, we activated effector T cells with anti-CD3 monoclonal antibody in the presence of Tregs, and analyzed the capacity of each peptide to restore T cell proliferation inhibited by Treg cells. […] Indeed, when results from the point-variant screening are represented as a heat map, it is clear that introduction of an alanine at positions 2, 5 and 11 improved activity of the original P60, whereas alanine mutations at positions 1, 7, 8, 9, 10 and 12 are detrimental (Figure 4C).
Isolation of murine CD4^+CD25^+, and CD4^+CD25^− T-cells was performed from murine spleen cells by using murine regulatory T-cell isolation kit (Miltenyi Biotec, Bergisch Gladbach, Germany) according to manufacturer's instructions. The purity of the resulting T-cell populations was confirmed to be > 95% by flow cytometry.
Inhibition of murine T regulatory cell function was measured in an in vitro assay of T-cell stimulation. CD25+ depleted spleen cells (10^5 cells/well) from BALB/c mice were stimulated in vitro with 2, 5 μg/ml of anti-mouse CD3 antibody (Pharmingen) in the presence/absence of purified Treg cells (10^4 cells/well). T-cell proliferation was measured 3 days later as previously described.

[2] = biological target: T1, FOXP3/AML1 interaction (Homo sapiens, UniProt Q9BZS1); test: AlphaScreen FOXP3/AML1 heterodimerization assay; format: biochemical
T1 sequence (Q9BZS1 1-431): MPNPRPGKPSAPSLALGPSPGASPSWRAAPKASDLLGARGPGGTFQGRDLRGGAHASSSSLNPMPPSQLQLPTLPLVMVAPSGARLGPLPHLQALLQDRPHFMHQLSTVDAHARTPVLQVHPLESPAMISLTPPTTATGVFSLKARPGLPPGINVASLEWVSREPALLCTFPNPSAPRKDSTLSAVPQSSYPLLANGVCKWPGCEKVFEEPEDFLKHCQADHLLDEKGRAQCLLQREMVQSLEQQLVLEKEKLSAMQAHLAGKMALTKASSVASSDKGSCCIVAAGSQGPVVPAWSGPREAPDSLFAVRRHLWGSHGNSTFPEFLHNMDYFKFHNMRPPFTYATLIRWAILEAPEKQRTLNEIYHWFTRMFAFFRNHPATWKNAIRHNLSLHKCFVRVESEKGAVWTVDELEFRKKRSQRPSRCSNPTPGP
Description: (§1) AML1 is required for IL-2 and IFN-γ gene expression in conventional CD4+ T cells and its interaction with FOXP3 is needed for the immunosuppressive activity of Tregs. On the other hand, it has been described that the leucine zipper region is necessary and sufficient to mediate FOXP3 homo-dimerization, which is required for its function as a transcriptional regulator [13, 15, 20]. Thus, since P60 binds to this FOXP3 intermediate region, we analyzed if it could act as a decoy molecule to inhibit FOXP3 homodimerization or the FOXP3-AML1 heterodimerization. The capacity of FOXP3 to homodimerize was measured using the […] assay platform AlphaScreen™ (Perkin Elmer). Previous protein-cross titration experiment using different concentrations of FOXP3-6His (from 1000 to 0 nM) and GST-FOXP3 (from 300 to 0 nM) allowed us to define the optimal protein concentrations to analyze FOXP3 homodimerization (Figure 2A). […] We also tested if GST tagged FOXP3 was able to interact with AML1 protein tagged with 6 His at the N-terminus. As shown in the cross titration experiments in Figure 2C, a specific FOXP3-AML1 heterodimerization was visualized as an increase in the AlphaScreen signal.
(§2) FOXP3/AML1 heterodimerization, as well as FOXP3/FOXP3 homodimerization were analyzed by Alphascreen technology according to the manufacturer's instructions (Perkin Elmer, Benelux) as previously described.

[3] = biological target: T2, FOXP3/FOXP3 homodimerization (GST-FOXP3 and FOXP3-His) (Homo sapiens, UniProt Q9BZS1); test: AlphaScreen FOXP3 homodimerization assay; format: biochemical; settings: GST-FOXP3 40 nM, FOXP3-His 300 nM
T2 construct: made in house; host or cells: E. coli
T2 sequence (Q9BZS1 1-421): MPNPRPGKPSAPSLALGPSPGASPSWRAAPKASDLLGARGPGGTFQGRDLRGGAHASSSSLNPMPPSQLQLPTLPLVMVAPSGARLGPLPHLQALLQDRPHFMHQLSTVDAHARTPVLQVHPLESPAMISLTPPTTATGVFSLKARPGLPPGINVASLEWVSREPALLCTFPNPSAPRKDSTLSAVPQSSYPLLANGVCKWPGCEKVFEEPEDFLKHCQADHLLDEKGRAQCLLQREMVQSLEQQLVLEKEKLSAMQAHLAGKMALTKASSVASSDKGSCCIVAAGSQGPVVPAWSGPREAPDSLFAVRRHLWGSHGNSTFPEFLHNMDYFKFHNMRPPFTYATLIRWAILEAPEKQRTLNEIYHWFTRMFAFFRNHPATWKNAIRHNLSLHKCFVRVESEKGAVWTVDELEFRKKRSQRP
Description: as §1, §2

[4] = Metabolic stability in human liver microsomes; format: in vitro ADME; settings: 1 μM, estimated by first order kinetics
Method: (§3) Metabolic stability was measured by Wuxi AppTech (Shanghai, China). Briefly, peptides (1 μM, 5% MeOH in potassium phosphate buffer) were incubated with human (catalogue no. 452161 from BD Gentest) and mouse (catalogue no. M1000, Xenotech) liver microsomes at 37°C for 10 min. Liver microsomes were at a final assay concentration of 0.7 mg protein/mL. The reaction was started by the addition of 90 μL of NADP cofactor solution and stopped by the addition of 300 μL of stop solution (acetonitrile at 4°C, including 100 ng/mL tolbutamide as an internal standard) after 20 min of incubation. The samples were shaken for 5 min and then centrifuged for 20 min at 1500 g. A 100 μL aliquot of the supernatant was transferred to eight new 96-well plates with 300 μL of HPLC water and centrifuged at 1500 g for LC-MS/MS analysis (Shimadzu LC 10-AD−API 4000). An injection volume of 10 μL was added to a Phenomenex Synergi C18 column eluting with formic acid in water or acetonitrile at a flow rate of 800 μL/min. The percent loss of parent compound was calculated from the peak area ratio of the analyte/internal standard. Compounds and positive controls were tested in duplicate.

[5] = Metabolic stability in mouse liver microsomes; format: in vitro ADME; settings: 1 μM, estimated by first order kinetics
Method: as §3

[6] = test system: FOXP3-6His (native FOXP3, 1-421); test: Surface plasmon resonance, peptide binding to FOXP3-coated chip; settings: for FOXP3 binding by SPR (in words): peptides at 2.5 μM, N-terminal acetylation and C-terminal amidation
Method: Using truncated versions of FOXP3, we attempted to identify the FOXP3 domain interacting with peptide P60, described previously by or group as a FOXP3 inhibitory peptide. Thus, besides native FOXP3 we prepared the deletion mutants FOXP3 (1-331) (lacking the C-terminus of FOXP3), FOXP3 (177-421) (lacking the N-terminus) and FOXP3 (1-177) (encompassing only the N-terminus of FOXP3) (Figure 1A). They were coated on a chip for SPR experiments.
Screening of peptide binding to FOXP3 was performed by surface plasmon resonance (SPR) using ProteOn XPR36 (Bio-Rad, Hercules CA, USA) optical biosensor. Recombinant protein FOXP3-6His and the indicated truncated versions of FOXP3 were produced and purified from E-coli and immobilized covalently onto a GLM sensor chip (Bio-Rad) using sulfo-NHS and EDC (Bio-Rad) coupling reagents. After protein immobilization, chip surface was treated with ethanolamine to deactivate the excess of reactive esters. Individual peptide solutions (1–20 μM) were injected by triplicate in running buffer (Phosphate buffered saline, 0.005% (v/v) Tween 20, pH 7.4) at a flow of 30 μl/min. The interspot signal (obtained in the chip surface not immobilized with protein) was used as reference.

[7] = test system: Hepa-129 cells; test: Hepa-129 subcutaneous tumor rejection model; format: in vivo, C3H/HeN mice; settings: Hepa-129 s.c.
Method: Seven days after Hepa-129 cells injection, when the tumor reached 5 mm in diameter, mice were treated with CM-1215 (from days 7 to 16, 50μg/day/mouse) or anti-PD1 antibodies (50 μg/mice) at days 7 and 14. A group of mice treated with anti-PD1 received also 10 consecutive i.p. administrations of CM-1215 from days 7 to 16 (50 μg/day/mouse).
For tumor rejection experiments, Hepa-129 cells (10^6 cells/mouse), were injected subcutaneously (sc) in C3H/HeN mice (n = 6). Ten days later, when the tumor reached 5 mm in diameter, mice were randomly divided into different experimental groups. A group of mice were treated i.p. with anti-PD1 antibodies (50 μg/mouse). Antibody administration was repeated one week after this first administration. A group of mice treated with anti-PD1 also received the cyclic peptide CM-1215 from days 10 to 20 (50 μg/mice/day). Tumor size, presented as the average of two perpendicular diameters (millimetres), was measured at regular intervals. Mice were sacrificed when the mean tumor diameter was greater than 20 mm. […] Tumor size was monitored twice a week with a calliper and it was expressed according to the formula V = (length × width^2)/2. […]

Row | IC50 [1] | Compound | IC50 ([1]; in vitro cell based bioassay, read-out: IC50 to inhibit Treg activity) | Inhibition of FOXP3-AML1 heterodimerization (in words) [2] | Inhibition of FOXP3 homodimerization (in words) [3] | half-life [4] | half-life [5] | FOXP3 binding by SPR (in words) [6] | T1/2 [4] | Antitumor effect / survival, single agent (in words) ([7]; CM-1215 50μg/day/mouse i.p. days 7 to 16, anti-PD1 50 μg/mice days 7 and 14) | Antitumor activity in combination with anti-PD1 (in words) ([7]; anti-PD1 50 μg days 7 and 14 plus CM-1215 50 μg/day/mouse i.p. days 7 to 16, p < 0.001) | FOXP3 binding capacity by SPR (in words) ([6]; FOXP3 coated on chip, mutants compared with original P60)
1 |  | H-RAFQSFRKMWPFFAM-OH [P60-D2A] | 27.2 µM | inhibited | inhibited |  |  |  |  |  |  | 
2 | 1.89 µM | Ac-RAFQAFRKMWPFFAM-NH2 [P60-D2A-S5A] |  | significantly improved the capacity of the original P60 peptide to inhibit this interaction |  | < 2.5 min | < 2.5 min | improved FOXP3 binding |  |  |  | 
3 | 2.95 µM | Ac-RAFQAFRKMWAFFAM-NH2 [P60-D2A-S5A-P11A] |  | significantly improved the capacity of the original P60 peptide to inhibit this interaction |  |  |  | improved very significantly the FOXP3 binding capacity |  |  |  | 

Row | Compound | IC50 [1] | IC50 ([1]; in vitro cell based bioassay, read-out: IC50 to inhibit Treg activity) | Inhibition of FOXP3-AML1 heterodimerization (in words) [2] | Inhibition of FOXP3 homodimerization (in words) [3] | half-life [4] | half-life [5] | FOXP3 binding by SPR (in words) [6] | T1/2 [4] | Antitumor effect / survival, single agent (in words) ([7]; CM-1215 50μg/day/mouse i.p. days 7 to 16, anti-PD1 50 μg/mice days 7 and 14) | Antitumor activity in combination with anti-PD1 (in words) ([7]; anti-PD1 50 μg days 7 and 14 plus CM-1215 50 μg/day/mouse i.p. days 7 to 16, p < 0.001) | FOXP3 binding capacity by SPR (in words) ([6]; FOXP3 coated on chip, mutants compared with original P60)
4 | CSCC[C@@H]1NC(=O)[C@H](C)NC(=O)[C@H](Cc2ccccc2)NC(=O)[C@H](Cc2ccccc2)NC(=O)[C@@H]2CCCN2C(=O)[C@H](Cc2c[nH]c3ccccc23)NC(=O)[C@H](CCSC)NC(=O)[C@H](CCCCN)NC(=O)[C@H](CCCNC(=N)N)NC(=O)[C@H](Cc2ccccc2)NC(=O)[C@H](C)NC(=O)[C@H](CCC(N)=O)NC(=O)[C@H](Cc2ccccc2)NC(=O)[C@H](C)NC(=O)[C@H](CCCNC(=N)N)NC1=O [CM-1215] (cyclo(RAFQAFRKMWPFFAM)) | 0.77 µM |  |  |  | ~8 min | ~8 min |  | 5.30 min | some beneficial effect on the percentage of survival, this response did not reach statistical significance | exhibited antitumor activity | improved very significantly its capacity to bind to FOXP3
